Results taken from patent US20160113931A1, “Method of treating and/or preventing neurodegenerative diseases” (University of Macau, priority 2014, published 2016).

What was measured:
zebrafish [1] = assay: MPTP-induced dopaminergic neuron loss in zebrafish (TH whole-mount immunostaining); type: in vivo, Danio rerio; details: positive control, MPTP 48 h
Description: Zebrafish at 1 dpf were exposed to BHDPC (3, 10, 30 μM) with or without MPTP for 48 h. Then fish were fixed for whole mount immunostaining. The morphology change of dopaminergic neurons in zebrafish brain was indicated by immunostaining with antibody against tyrosine hydroxylase (TH). Statistical analysis of TH density was accessed in each 10 fish/group. […] Zebrafish at 1 dpf were exposed to different concentrations of BHDPC with or without MPTP for 48 h. Then fish were fixed for whole mount immunostaining.
(§1) The AB strain of wild type zebrafish (Danio rerio) was maintained as described in the Zebrafish Handbook. Zebrafish were staged by days post fertilization […]. For breeding, groups of male and female (3:2) adult zebrafish were placed in 10-L plastic aquarium equipped with spawning nets in the evening. In the following morning, eggs were collected from the breeding group tanks. Normally developed fertilized eggs were selected under a stereomicroscope for further studies. The MPTP manipulation was performed with appropriate safety precautions and all MPTP-containing water was bleached.
Whole-mount immunostaining in zebrafish was performed as previously described. 3 dpf Zebrafish larvae were fixed with 4% paraformaldehyde in PBS for 30 min, […] (TH) staining was performed as previously described. Briefly, zebrafish were fixed in 4% paraformaldehyde in PBS for 5 h. Fixed samples were blocked (2% lamb serum and 0.1% BSA in PBST) for 1 h at room temperature. A mouse monoclonal anti-tyrosine hydroxylase (TH) antibody (Millipore, Billerica, MD, USA) was used as the primary antibody and incubated with samples overnight at 4° C. On the next day, samples were washed six times with PBST (each wash lasted 30 min), followed by incubation with Alexa Fluor® 488 goat anti-mouse antibodies. After immunostaining, zebrafish were mounted with 3.5% methylcellulose and photographed. Semi-quantification of the area of TH^+ cells was assessed by an investigator, unaware of the drug treatment, using Image-J software. Results are expressed as percentage of area of TH^+ cells in untreated normal control groups.
In this example, the in vivo animal model was used to determine the neuroprotective effect of BHDPC. Anti-tyrosine hydroxylase (TH) whole mount immunostaining was used to determine dopaminergic neuronal populations in zebrafish larvae (FIG. 15A). TH activity is the key enzyme responsible for dopamine biosynthesis in the CNS. […] The dopamine reuptake inhibitor nomifensine (Nom), which protected against MPTP-induced neurotoxicity in vivo was used as a positive control. The treatment of larvae with 30 μM of nomifensine, a positive control drug attenuated MPTP-induced neurotoxicity, with TH^+ density […] by 30% compared to the MPTP group.
L-deprenyl, which is a substituted phenethylamine used in treatment of early Parkinson's disease, was used as a positive control.

zebrafish [2] = assay: MPTP-induced deficit of locomotion behavior in zebrafish larvae; type: in vivo, Danio rerio; details: 150 μM L-dopa with MPTP, positive control
Description: Three dpf zebrafish embryos were co-incubated with 10 μM MPTP and BHDPC at the indicated concentrations for 96 hours, and zebrafish larval co-treated with MPTP and 150 μM L-dopa was used as positive control. After treatment, zebrafish were collected to perform locomotion behavior test using Viewpoint Zebrabox system and total distances travelled in 10 min were calculated.
as §1
In addition, MPTP markedly altered the swimming behavior of the zebrafish as a consequence of DA neuronal injury. […] BHDPC ameliorated MPTP-induced deficit of swimming behavior. At the same condition, MPTP-induced deficit of swimming behavior were rescued by positive controls, levodopa (L-dopa) (FIG. 16).

Question: Which “TH+ density compared to the MPTP group (FIG. 15B)” value (zebrafish [1]) does the source give for `C#CCN(C)[C@H](C)Cc1ccccc1` [L-deprenyl, reference compound] here?
Answer: Its value is “significant increase”.

Question: How did the “MPTP-induced deficit of swimming behavior (total distance travelled in 10 min)” value (zebrafish [2]) turn out when `N[C@@H](Cc1ccc(O)c(O)c1)C(=O)O` [levodopa, reference compound] was run?
Answer: Its value is “rescued”.

Question: Which “TH+ density reduced by, compared to the MPTP group” value (zebrafish [1]; 30 μM nomifensine) does the source give for `CN1Cc2c(N)cccc2C(c2ccccc2)C1` (stereo not drawn) [nomifensine, reference compound] here?
Answer: Its value is 30%.
